Experimental data reported in ChEMBL document CHEMBL4330132, “5-Keto-3-cyano-2,4-diaminothiophenes as selective maternal embryonic leucine zipper kinase inhibitors” (Bioorg Med Chem Lett, 2019).

Assays:
[1] = system: Tyrosine-protein kinase ABL1 (Homo sapiens), P00519 [T315I]; assay: Binding affinity to human phosphorylated ABL1 T315I mutant (S229 to K512 residues) expressed in mammalian expression system assessed as residual binding level at 1 uM by Kinomescan method relative to control
[2] = target: Tyrosine-protein kinase ABL2 (Homo sapiens) (UniProt P42684); assay: Binding affinity to wild-type human ABL2 (A248 to G542 residues) expressed in bacterial expression system assessed as residual binding level at 1 uM by Kinomescan method relative to control
[3] = target: Activin receptor type-1-like (Homo sapiens) (UniProt P37023); assay: Binding affinity to wild-type human ACVRL1 (L164 to Q503 residues) expressed in bacterial expression system assessed as residual binding level at 1 uM by Kinomescan method relative to control
[4] = target: Aurora kinase A (Homo sapiens) (UniProt O14965); assay: Binding affinity to wild-type human partial length AURKA (E122 to K401 residues) expressed in mammalian expression system assessed as residual binding level at 1 uM by Kinomescan method relative to control
[5] = target: Serine/threonine-protein kinase BRSK1 (Homo sapiens) (UniProt Q8TDC3); assay: Binding affinity to wild-type human partial length BRSK1 (M1 to E754 residues) expressed in bacterial expression system assessed as residual binding level at 1 uM by Kinomescan method relative to control
[6] = target: Calcium/calmodulin-dependent protein kinase type 1 (Homo sapiens) (UniProt Q14012); assay: Binding affinity to wild-type human full length CAMK1 (M1 to L370 residues) expressed in bacterial expression system assessed as residual binding level at 1 uM by Kinomescan method relative to control
[7] = target: Casein kinase I isoform alpha (Homo sapiens) (UniProt P48729); assay: Binding affinity to wild-type human partial length CSNK1A1 (M1 to L450 residues) expressed in mammalian expression system assessed as residual binding level at 1 uM by Kinomescan method relative to control
[8] = target: Dual specificity tyrosine-phosphorylation-regulated kinase 2 (Homo sapiens) (UniProt Q92630); assay: Binding affinity to wild-type human full length DYRK2 (M1 to S528 residues) expressed in mammalian expression system assessed as residual binding level at 1 uM by Kinomescan method relative to control
[9] = system: Epidermal growth factor receptor (Homo sapiens), P00533 [L858R]; assay: Binding affinity to human partial length EGFR L858R mutant (R669 to V1011 residues) expressed in bacterial expression system assessed as residual binding level at 1 uM by Kinomescan method relative to control
[10] = target: Receptor tyrosine-protein kinase erbB-4 (Homo sapiens) (UniProt Q15303); assay: Binding affinity to wild-type human partial length ERBB4 (L690 to K994 residues) expressed in bacterial expression system assessed as residual binding level at 1 uM by Kinomescan method relative to control
[11] = target: Glycogen synthase kinase-3 beta (Homo sapiens) (UniProt P49841); assay: Binding affinity to wild-type human full length GSK3B (M1 to T433 residues) expressed in mammalian expression system assessed as residual binding level at 1 uM by Kinomescan method relative to control
[12] = target: Mitogen-activated protein kinase kinase kinase kinase 1 (Homo sapiens) (UniProt Q92918); assay: Binding affinity to wild-type human full length HPK1 (M1 to R799 residues) expressed in bacterial expression system assessed as residual binding level at 1 uM by Kinomescan method relative to control
[13] = target: Serine/threonine-protein kinase STK11 (Homo sapiens) (UniProt Q15831); assay: Binding affinity to wild-type human full length LKB1 (M1 to Q433 residues) expressed in bacterial expression system assessed as residual binding level at 1 uM by Kinomescan method relative to control
[14] = target: MAP/microtubule affinity-regulating kinase 4 (Homo sapiens) (UniProt Q96L34); assay: Binding affinity to wild-type human partial length MARK4 (K29 to G340 residues) expressed in bacterial expression system assessed as residual binding level at 1 uM by Kinomescan method relative to control
[15] = target: Misshapen-like kinase 1 (Homo sapiens) (UniProt Q8N4C8); assay: Binding affinity to wild-type human partial length MINK (M1 to K312 residues) expressed in mammalian expression system assessed as residual binding level at 1 uM by Kinomescan method relative to control
[16] = target: Mitogen-activated protein kinase 13 (Homo sapiens) (UniProt O15264); assay: Binding affinity to wild-type human full length p38-delta (M1 to L365 residues) expressed in bacterial expression system assessed as residual binding level at 1 uM by Kinomescan method relative to control
[17] = target: Serine/threonine-protein kinase pim-1 (Homo sapiens) (UniProt P11309); assay: Binding affinity to wild-type human partial length PIM1 (A15 to K313 residues) expressed in bacterial expression system assessed as residual binding level at 1 uM by Kinomescan method relative to control
[18] = target: Membrane-associated tyrosine- and threonine-specific cdc2-inhibitory kinase (Homo sapiens) (UniProt Q99640); assay: Binding affinity to wild-type human partial length PKMYT1 (A88 to G366 residues) expressed in bacterial expression system assessed as residual binding level at 1 uM by Kinomescan method relative to control
[19] = target: RAF proto-oncogene serine/threonine-protein kinase (Homo sapiens) (UniProt P04049); assay: Binding affinity to wild-type human partial length RAF1 (I330 to T640 residues) expressed in bacterial expression system assessed as residual binding level at 1 uM by Kinomescan method relative to control
[20] = target: Serine/threonine-protein kinase Sgk3 (Homo sapiens) (UniProt Q96BR1); assay: Binding affinity to wild-type human partial length SGK3 (M119 to L496 residues) expressed in mammalian expression system assessed as residual binding level at 1 uM by Kinomescan method relative to control
[21] = target: Serine/threonine-protein kinase TAO3 (Homo sapiens) (UniProt Q9H2K8); assay: Binding affinity to wild-type human partial length TAOK3 (M1 to T316 residues) expressed in mammalian expression system assessed as residual binding level at 1 uM by Kinomescan method relative to control
[22] = target: Serine/threonine-protein kinase TBK1 (Homo sapiens) (UniProt Q9UHD2); assay: Binding affinity to wild-type human full length TBK1 (M1 to L729 residues) expressed in mammalian expression system assessed as residual binding level at 1 uM by Kinomescan method relative to control
[23] = target: Tyrosine-protein kinase Tec (Homo sapiens) (UniProt P42680); assay: Binding affinity to wild-type human partial length TEC (L341 to D620 residues) expressed in bacterial expression system assessed as residual binding level at 1 uM by Kinomescan method relative to control
[24] = target: Angiopoietin-1 receptor (Homo sapiens) (UniProt Q02763); assay: Binding affinity to wild-type human partial length TIE2 (N804 to T1112 residues) expressed in bacterial expression system assessed as residual binding level at 1 uM by Kinomescan method relative to control
[25] = target: High affinity nerve growth factor receptor (Homo sapiens) (UniProt P04629); assay: Binding affinity to wild-type human partial length TRKA (G475 to G790 residues) expressed in mammalian expression system assessed as residual binding level at 1 uM by Kinomescan method relative to control

## CC(C)Nc1sc(C(=O)c2ccc(Cl)s2)c(N)c1C#N
[1]
  Activity: 100%
[2]
  Activity: 95%
[3]
  Activity: 100%
[4]
  Activity: 100%
[5]
  Activity: 92%
[6]
  Activity: 91%
[7]
  Activity: 100%
[8]
  Activity: 100%
[9]
  Activity: 95%
[10]
  Activity: 100%
[11]
  Activity: 97%
[12]
  Activity: 100%
[13]
  Activity: 89%
[14]
  Activity: 65%
[15]
  Activity: 55%
[16]
  Activity: 100%
[17]
  Activity: 92%
[18]
  Activity: 78%
[19]
  Activity: 71%
[20]
  Activity: 100%
[21]
  Activity: 100%
[22]
  Activity: 97%
[23]
  Activity: 94%
[24]
  Activity: 96%
[25]
  Activity: 92%
